According to PubChem BioAssay AID1845197 (Molecular Pharmacology Branch, DTP, NCI, 2023):
pIC50: −log10 of the molar value. Values joined by “and” are separate entries in the source; they are usually repeats but may differ in a detail not shown here. Identical values can stand only once.

Tested on: 349418-098-R tumor spheroid viability
Experiment: Anticancer human tumor 349418-098-R patient-derived lung adenocarcinoma cell line growth inhibition
Settings: spheroids with HUVEC and MSC; for viability, T/C: stronger effect = lower value
Source text: Multicellular complex tumor spheroid response to DNA repair inhibitors in combination with DNA-damaging drugs
This study explores the anticancer activities of DNA-damaging drugs and inhibitors of DNA damage repair, both as single agents and in combinations. Complex tumor spheroids comprised of malignant cells, endothelial cells and mesenchymal stem cells served as an in vitro model for human solid tumors. This model system incorporates physiologically relevant features and patient-derived or established malignant cell lines with clinically relevant genetic alterations from many tumor types. Twenty-six patient-derived or established malignant cell lines were evaluated representing sarcoma, melanoma, small cell lung cancer (SCLC), non-small cell lung cancer (NSCLC), as well as bladder, ovarian and pancreatic cancers. The concentration ranges selected for each drug and investigational agent were based upon clinically achievable concentrations if the clinical Cmax of the agent was known.
Compounds. The drugs and compounds olaparib (NSC753686), talazoparib (NSC767125), berzosertib (NSC777718), elimusertib (NSC800525), nedisertib (NSC802822), VX-984 (NSC792969), AZD-1390 (NSC803789), temozolomide (NSC362856), topotecan (NSC609699), trabectedin (NSC813783), staurosporine (NSC755774), and gemcitabine (NSC613327) were obtained from the National Cancer Institute (NCI) Developmental Therapeutics Program Chemical Repository. The FDA-approved anticancer drug set is available from the Developmental Therapeutics Program at https://dtp.cancer.gov/organization/dscb/obtaining/available_plates.htm. […] The stock solutions were prepared in dimethyl sulfoxide (DMSO, Sigma-Aldrich, St. Louis, MO, cat. D2650) at 400-fold the tested concentration and stored at -70 degrees C. Prior to their use, the stock solutions were diluted in fresh medium and the final DMSO concentration in the assay was 0.25% (v/v). All drugs and investigational agents were tested over a range starting from a high concentration at or near the clinical Cmax and decreasing in half-log increments. If the clinical Cmax for an agent had not been determined, the highest concentration tested was 10 microM.
Cell Lines. The patient-derived cancer cell (PDC) lines: 156681-154-R-J1-PDC, 283228-195-R-J1-PDC, 287954-098-R-J1-PDC, 292921-168-R-J2-PDC, 349418-098-R-PDC, 425362-245-T-J1-PDC, 556581-035-R-J1-PDC, and BL0293-F563-PDC were received from the NCI Patient-Derived Models Repository (PDMR, https://pdmr.cancer.gov). The established cell lines HS-SY-2 (RRID:CVCL_8719), MPNST, and SYO-1 (RRID:CVCL_7146) were obtained from the Sloan Kettering Institute. The alveolar soft parts sarcoma cell line ASPS-1 (RRID:CVCL_S738) was established at the NCI and grown from internal seed stocks. The following established cell lines were purchased from the American Type Culture Collection (ATCC, Manassas, VA): G-401 (ATCC, cat. CRL-1441, RRID:CVCL_0270), SW982 (ATCC, cat. HTB-93, RRID:CVCL_1734), VA-ES-BJ (ATCC, cat. CRL-2138, RRID:CVCL_1785), NCI-H719 (ATCC, cat. CRL-5837, RRID:CVCL_1582), NCI-H196 (ATCC, cat. CRL-5823, RRID:CVCL_1509), NCI-H841 (ATCC, cat. CRL-5845, RRID:CVCL_1595), NCI-H1618 (ATCC, cat. CRL-5879, RRID:CVCL_1480), NCI-H1876 (ATCC, cat. CRL-5902, RRID:CVCL_1503), DMS 114 (ATCC, cat. CRL-2066; RRID:CVCL_1174), NCI-H211 (ATCC, cat. CRL-5824; RRID:CVCL_1529), and SW 1271 (ATCC, cat. CRL-2177, RRID:CVCL_1716). The small cell lung cancer cell line COR-L88 was purchased from Sigma-Aldrich (cat. 92031917-1VL, RRID:CVCL_1141). The non-small cell lung cancer cell lines NCI-H226 (RRID:CVCL_1544) and NCI-H322M (RRID:CVCL_1557) were established at the NCI and grown from internal seed stocks. Pooled donor human umbilical vein endothelial cells (HUVEC, Lonza, cat. CC-2519) and human mesenchymal stem cells (hMSC, Lonza, cat. PT-2501) were purchased from Lonza (Walkersville, MD).
Cell Culture. All cells were maintained in an incubator at 37 degrees C and 5% CO2 with 95% humidity. […]

[1] = curve of first compound, second compound 30 pM
[2] = curve of first compound, second compound 94.9 pM
[3] = curve of first compound, second compound 0.0003 µM
[4] = curve of first compound, second compound 0.000949 µM
[5] = curve of first compound, second compound 0.003 µM
[6] = second compound 30 pM, first compound 0.0316 µM
[7] = second compound 30 pM, first compound 0.1 µM
[8] = second compound 30 pM, first compound 0.316 µM
[9] = second compound 30 pM, first compound 1 µM
[10] = second compound 30 pM, first compound 3.16 µM
[11] = second compound 30 pM, first compound 10 µM
[12] = second compound 94.9 pM, first compound 0.0316 µM
[13] = second compound 94.9 pM, first compound 0.1 µM
[14] = second compound 94.9 pM, first compound 0.316 µM
[15] = second compound 94.9 pM, first compound 1 µM
[16] = second compound 94.9 pM, first compound 3.16 µM
[17] = second compound 94.9 pM, first compound 10 µM
[18] = second compound 0.0003 µM, first compound 0.0316 µM
[19] = second compound 0.0003 µM, first compound 0.1 µM
[20] = second compound 0.0003 µM, first compound 0.316 µM
[21] = second compound 0.0003 µM, first compound 1 µM
[22] = second compound 0.0003 µM, first compound 3.16 µM
[23] = second compound 0.0003 µM, first compound 10 µM
[24] = second compound 0.000949 µM, first compound 0.0316 µM
[25] = second compound 0.000949 µM, first compound 0.1 µM
[26] = second compound 0.000949 µM, first compound 0.316 µM
[27] = second compound 0.000949 µM, first compound 1 µM
[28] = second compound 0.000949 µM, first compound 3.16 µM
[29] = second compound 0.000949 µM, first compound 10 µM
[30] = second compound 0.003 µM, first compound 0.0316 µM
[31] = second compound 0.003 µM, first compound 0.1 µM
[32] = second compound 0.003 µM, first compound 0.316 µM
[33] = second compound 0.003 µM, first compound 1 µM
[34] = second compound 0.003 µM, first compound 3.16 µM
[35] = second compound 0.003 µM, first compound 10 µM
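Also: spheroids exposed to compound for 7 days before measurement.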
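For viability, T/C in this document: percent of vehicle control viability with 100% = DMSO-treated spheroids.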

SMILES: COc1cc(C)[nH]c(=O)c1CN1CCc2c(Cl)cc(C(OC)C3COC3)c(Cl)c2C1=O (centres undefined) + COc1cc2c(cc1O)CCNC21CSC2c3c(OC(C)=O)c(C)c4c(c3C(COC1=O)N1C(O)C3Cc5cc(C)c(OC)c(O)c5C(C21)N3C)OCO4
- pIC50 [1]: < 5.00
- pIC50 [2]: < 5.00
- pIC50 [3]: < 5.00
- pIC50 [4]: > 7.50
- pIC50 [5]: > 7.50
- viability, T/C [6]: 112%
- viability, T/C [7]: 106%
- viability, T/C [8]: 96.1%
- viability, T/C [9]: 97.2%
- viability, T/C [10]: 94.2%
- viability, T/C [11]: 93.3%
- viability, T/C [12]: 112%
- viability, T/C [13]: 111%
- viability, T/C [14]: 102%
- viability, T/C [15]: 99.2%
- viability, T/C [16]: 90.8%
- viability, T/C [17]: 95.8%
- viability, T/C [18]: 95.4%
- viability, T/C [19]: 85.8%
- viability, T/C [20]: 84.3%
- viability, T/C [21]: 79.9%
- viability, T/C [22]: 64%
- viability, T/C [23]: 53.1%
- viability, T/C [24]: 0.28%
- viability, T/C [25]: 0.39%
- viability, T/C [26]: 0.45%
- viability, T/C [27]: 0.46%
- viability, T/C [28]: 0.29%
- viability, T/C [29]: 0.33%
- viability, T/C [30]: 1.45%
- viability, T/C [31]: 1.46%
- viability, T/C [32]: 1.03%
- viability, T/C [33]: 1.48%
- viability, T/C [34]: 1.6%
- viability, T/C [35]: 2.3%

SMILES: [2H]c1nc(C)nc([2H])c1-c1cc(NC[C@@H](C)c2cccc3c(C(=O)NC)ccnc23)ncn1
- viability, T/C (compound 0.0316 µM): 109% and 102% and 93.6%
- viability, T/C (compound 0.1 µM): 109% and 103% and 105%
- viability, T/C (compound 0.316 µM): 106% and 101% and 113%
- viability, T/C (compound 1 µM): 105% (2×) and 107%
- viability, T/C (compound 3.16 µM): 114% and 103% (2×)
- viability, T/C (compound 10 µM): 112% and 102% and 105%
- pIC50 (curve of compound): < 5.00

SMILES: O=C(c1cc(Cc2n[nH]c(=O)c3ccccc23)ccc1F)N1CCN(C(=O)C2CC2)CC1
- viability, T/C (compound 0.0949 µM): 103% and 97.1% and 105%
- viability, T/C (compound 0.3 µM): 104% and 106% and 113%
- viability, T/C (compound 0.949 µM): 101% and 97.6% and 107%
- viability, T/C (compound 3 µM): 94.8% and 97.7% and 110%
- viability, T/C (compound 9.49 µM): 84.8% and 83.9% and 106%
- viability, T/C (compound 30 µM): 56.2% and 53.6% and 74.1%
- pIC50 (curve of compound): < 4.52

SMILES: COc1ccc([C@@H](O)c2cc(-c3ncnc4cc(N5CCOCC5)ccc34)c(F)cc2Cl)nn1 + COc1cc2c(cc1O)CCNC21CSC2c3c(OC(C)=O)c(C)c4c(c3C(COC1=O)N1C(O)C3Cc5cc(C)c(OC)c(O)c5C(C21)N3C)OCO4
- pIC50 [1]: 5.22
- pIC50 [2]: 5.41
- pIC50 [3]: 6.40
- pIC50 [4]: > 7.50
- pIC50 [5]: > 7.50
- viability, T/C [6]: 97.2%
- viability, T/C [7]: 92.9%
- viability, T/C [8]: 102%
- viability, T/C [9]: 98.6%
- viability, T/C [10]: 83.3%
- viability, T/C [11]: 22.5%
- viability, T/C [12]: 105%
- viability, T/C [13]: 101%
- viability, T/C [14]: 94.2%
- viability, T/C [15]: 94.3%
- viability, T/C [16]: 56.3%
- viability, T/C [17]: 18.3%
- viability, T/C [18]: 84.1%
- viability, T/C [19]: 90.8%
- viability, T/C [20]: 60%
- viability, T/C [21]: 9.13%
- viability, T/C [22]: 2.15%
- viability, T/C [23]: 0.54%
- viability, T/C [24]: 0.44%
- viability, T/C [25]: 0.79%
- viability, T/C [26]: 0.24%
- viability, T/C [27]: 0.35%
- viability, T/C [28]: 1.2%
- viability, T/C [29]: 2.19%
- viability, T/C [30]: 1.61%
- viability, T/C [31]: 2.06%
- viability, T/C [32]: 2.65%
- viability, T/C [33]: 3.97%
- viability, T/C [34]: 4.18%
- viability, T/C [35]: 4.47%
